Assay results from ChEMBL document CHEMBL3046127, “Homo- and hetero-dimers of inactive organophosphorous group binding at dual sites of AChE” (Bioorg Med Chem Lett, 2011).

How the values were obtained:
[1] = test system: Tetranychus cinnabarinus; assay: Insecticidal activity against Tetranychus cinnabarinus (carmine spider mite) assessed as insect mortality at 300 mg/mL; type: functional; set-up: dose or concentration left out as unconfirmed
[2] = biological target: Acetylcholinesterase (Drosophila melanogaster, UniProt P07140); assay: Inhibition of acetylcholinesterase in Drosophila melanogaster brain by Ellman's method
[3] = biological target: Acetylcholinesterase (Musca domestica, UniProt Q7YWJ9); assay: Inhibition of acetylcholinesterase in Musca domestica (house fly) brain by Ellman's method
[4] = test system: Lipaphis erysimi; assay: Insecticidal activity against Lipaphis erysimi (mustard aphids) assessed as insect mortality at 300 mg/mL; type: functional; set-up: dose or concentration left out as unconfirmed; conditions: in Brassica

Sequence of Acetylcholinesterase (Drosophila melanogaster, UniProt P07140) (P07140 whole entry): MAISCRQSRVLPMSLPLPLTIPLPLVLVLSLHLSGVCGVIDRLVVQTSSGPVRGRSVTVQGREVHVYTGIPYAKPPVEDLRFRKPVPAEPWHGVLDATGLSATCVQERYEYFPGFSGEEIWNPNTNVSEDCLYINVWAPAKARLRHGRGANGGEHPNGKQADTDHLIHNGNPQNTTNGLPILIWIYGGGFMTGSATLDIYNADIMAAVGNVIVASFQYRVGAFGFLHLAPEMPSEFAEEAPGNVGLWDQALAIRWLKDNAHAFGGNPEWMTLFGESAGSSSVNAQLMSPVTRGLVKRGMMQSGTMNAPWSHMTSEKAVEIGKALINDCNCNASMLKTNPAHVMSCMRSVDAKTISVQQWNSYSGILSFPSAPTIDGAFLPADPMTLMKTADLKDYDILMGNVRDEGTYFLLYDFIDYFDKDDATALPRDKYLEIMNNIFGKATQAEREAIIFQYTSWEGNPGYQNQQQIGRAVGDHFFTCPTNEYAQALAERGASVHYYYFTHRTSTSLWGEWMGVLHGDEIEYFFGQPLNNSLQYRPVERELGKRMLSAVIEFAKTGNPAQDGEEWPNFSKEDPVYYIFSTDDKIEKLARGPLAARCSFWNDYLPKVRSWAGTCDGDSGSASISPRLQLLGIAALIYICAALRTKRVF
Sequence of Acetylcholinesterase (Musca domestica, UniProt Q7YWJ9) (Q7YWJ9 whole entry): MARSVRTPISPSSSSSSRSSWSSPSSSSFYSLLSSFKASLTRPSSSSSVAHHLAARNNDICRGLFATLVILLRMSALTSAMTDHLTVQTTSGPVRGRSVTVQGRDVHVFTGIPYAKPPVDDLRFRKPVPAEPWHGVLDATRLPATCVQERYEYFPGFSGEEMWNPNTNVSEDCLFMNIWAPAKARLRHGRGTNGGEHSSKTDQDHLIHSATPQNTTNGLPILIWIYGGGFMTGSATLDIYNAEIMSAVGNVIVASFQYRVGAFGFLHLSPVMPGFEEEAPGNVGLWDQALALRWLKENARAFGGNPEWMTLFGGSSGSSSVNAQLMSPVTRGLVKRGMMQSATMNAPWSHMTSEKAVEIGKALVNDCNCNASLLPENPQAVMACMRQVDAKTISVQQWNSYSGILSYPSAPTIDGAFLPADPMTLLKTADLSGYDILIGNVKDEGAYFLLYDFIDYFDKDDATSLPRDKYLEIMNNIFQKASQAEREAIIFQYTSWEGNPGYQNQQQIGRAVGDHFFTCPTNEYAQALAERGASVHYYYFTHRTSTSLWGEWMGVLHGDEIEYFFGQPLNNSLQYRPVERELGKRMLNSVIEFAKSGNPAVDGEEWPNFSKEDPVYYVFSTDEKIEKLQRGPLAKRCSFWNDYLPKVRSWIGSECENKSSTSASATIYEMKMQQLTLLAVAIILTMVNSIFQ

Row | Compound | mortality [1] [%] | IC50 [2] [µM] | IC50 [3] [µM] | mortality [4] [%]
1 | CCOP(=O)(OCC)SCCCCCCCCN1C(=O)c2ccccc2C1=O | 85 | 4.5 | 13.8 | 62.5
2 | CCOP(=O)(OCC)SCCCCCCCCCN1C(=O)c2ccccc2C1=O | 77.6 | 37.5 | 267 | 88.3
3 | CCOP(=O)(OCC)SCCCCCCCCCCN1C(=O)c2ccccc2C1=O | 92.2 | 113 | 80.9 | 92.8
4 | CCOP(=O)(OCC)SCCCSP(=O)(OCC)OCC | 98.4 | 1.64 | 32.4 | 90.8
5 | CCOP(=O)(OCC)SCCCCSP(=O)(OCC)OCC | 82 | 8.07 | 107 | 89.4
6 | CCOP(=O)(OCC)SCCCCCSP(=O)(OCC)OCC | 85.7 | 12.3 | 4600 | 42.6
7 | CCOP(=O)(OCC)SCCCCCCSP(=O)(OCC)OCC | 92.4 | 0.87 | 8.9 | 95.4
8 | CCOP(=O)(OCC)SCCCCCCCSP(=O)(OCC)OCC | 83.3 | 10.2 | 2100 | 97.3
9 | CCOP(=O)(OCC)SCCCCCCCCSP(=O)(OCC)OCC | 87.7 | 4.84 | 331 | 97.5
10 | CCOP(=O)(OCC)SCCCCCCCCCSP(=O)(OCC)OCC | 78.6 | 1.43 | 197 | 100
11 | CCOP(=O)(OCC)SCCCCCCCCCCSP(=O)(OCC)OCC | 93.3 | 1.76 | 224 | 96.6
12 | CCOP(=O)(OCC)SCCCN1C(=O)c2ccccc2C1=O | 92.9 | 8.29 | 155 | 97.8
13 | CCOP(=O)(OCC)SCCCCN1C(=O)c2ccccc2C1=O | 88.9 | 9.92 | 25.8 | 97.7
14 | CCOP(=O)(OCC)SCCCCCN1C(=O)c2ccccc2C1=O | 81.2 | 12.3 | 114 | 96.5
15 | CCOP(=O)(OCC)SCCCCCCN1C(=O)c2ccccc2C1=O | 87.3 | 3.81 | 9.42 | 100
16 | CCOP(=O)(OCC)SCCCCCCCN1C(=O)c2ccccc2C1=O | 89.3 | 1.84 | 2.08 | 88
17 | CCOP(=S)(OCC)Oc1nc(Cl)c(Cl)cc1Cl [CHLORPYRIFOS] | 71.1 | 1.83 | 9.51 | 100
18 | CCOP(O)(=S)OCC [O,O-DIETHYL S-HYDROGEN PHOSPHOROTHIOATE] | – | > 40000 | > 25000 | –
